{"source": "patent US20250049664A1", "about": "“SKIN EXTERNAL APPLICATION COMPOSITION FOR SKIN BARRIER STRENGTHENING OR SKIN MOISTURIZING CONTAINING DEHYDROABIETIC ACID” (AMOREPACIFIC CORPORATION, priority 2018, published 2025)", "type_in_all_cases": "cell-based, human", "key": {"[1]": {"test_system": "filaggrin gene", "assay": "Quantitative RT-PCR of filaggrin gene expression in HaCaT cells", "conditions": "for Gene expression level (fold) Filaggrin: 24 hours, relative mRNA level vs ethanol negative control as 1", "experimental": "(§1) HaCaT cells were cultured in Dulbecco's modified Eagle's medium (DMEM, GIBCO 1210-0038) containing 10% fetal bovine serum. 1×10^6 cells were placed in a […] flask and cultured for 24 hours. Then, after treating with DMEM not containing fetal bovine serum and culturing for 24 hours, the cells were treated with dehydroabietic acid in a medium not containing fetal bovine serum for 24 hours. Then, after harvesting the cells and washing with cooled phosphate-buffered saline (PBS), total RNA was extracted by adding 1 mL of TRIzolTM reagent (Life Technologies, Inc.). Then, quantitative reverse transcriptase PCR was conducted. The primer sequences of PPARα. TGase 1, filaggrin and HAS 2 used to conduct PCR are described in Table 2. After adding 4 μg of total RNA to 25 μL of a reverse transcription buffer containing 50 mM Tris-HCl (pH 8.3), 75 mM KCl, 3 mM MgCl^2, 0.1 M DTT, 10 mM dNTP and 40 units/μL RNase inhibitor, 0.5 μg/μL oligo (dT)16 primer and 200 units of SuperScript II (GIBCO BRL) were added and incubation was conducted at 42° C. for 1 hour. Then, after mixing 2.5 μL of the reverse transcription solution with a 50 µL of a PCR buffer containing AmpliTaq DNA polymerase (0.04U, Perkin Elmer, Shelton, CT), 50 mM Tris (pH 8.3), 0.25 mg/mL bovine serum albumin, 3 mM MgCl2, 0.25 mM dNTPs and a 1/50,000 diluted solution of SYBR Green I (Molecular Probes, Eugene, OR), 10 μM of primers were added and PCR was conducted for 30 cycles of 30 seconds at 94° C., 30 seconds at 53°° C. and 1 minute at 72° C. Relative mRNA level was analyzed by measuring the change in the fluorescence of SYBR Green I using the ICycler software. WY14643, which is a PPARα ligand, was used as a positive control group. The relative mRNA level was represented relative to an ethanol-treated negative control group as 1. […] WY14643 is a PPARα ligand reported to induce keratinocyte differentiation and strengthen skin barrier."}, "[2]": {"target": "T1, PPARα (Mus musculus, UniProt P23204)", "T1 construct": "expressed in transfected cells; host or cells: HaCaT (human keratinocytes), transiently transfected", "T1 sequence (P23204 1-468)": "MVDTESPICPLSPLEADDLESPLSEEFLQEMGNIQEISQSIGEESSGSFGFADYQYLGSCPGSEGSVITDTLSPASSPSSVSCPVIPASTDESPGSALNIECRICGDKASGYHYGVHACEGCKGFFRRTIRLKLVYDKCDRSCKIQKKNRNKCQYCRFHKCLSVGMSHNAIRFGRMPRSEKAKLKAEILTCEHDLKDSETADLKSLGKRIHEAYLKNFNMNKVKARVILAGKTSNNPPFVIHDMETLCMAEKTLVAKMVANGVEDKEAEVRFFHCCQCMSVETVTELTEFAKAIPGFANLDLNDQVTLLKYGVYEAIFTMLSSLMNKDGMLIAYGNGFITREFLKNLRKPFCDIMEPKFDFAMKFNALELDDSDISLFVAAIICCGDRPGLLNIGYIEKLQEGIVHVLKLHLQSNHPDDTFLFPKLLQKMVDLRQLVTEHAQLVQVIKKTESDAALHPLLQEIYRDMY", "assay": "PPARα activation, PPRE-luciferase reporter assay in transfected HaCaT cells", "conditions": "10 μM; for PPARα activation (%): 24 hours, luciferase activity relative to ethanol negative control (100)", "source_text": "HaCaT cells, which are human keratinocytes, were subcultured in DMEM containing 10% fetal bovine serum. A phenol red-free medium was used to avoid the effect of phenol red on estrogen. The following plasmids were used: a plasmid having the PPARα gene downstream of a universal promoter which is expressed in general culture conditions; a plasmid having a PPAR response element (PPRE) activated by binding with ligand-bound PPAR as a promoter and a firefly luciferase gene reporter downstream of the promoter; and a reference plasmid having a β-galactosidase gene bound to a universal promoter [Kliewer, S. A., Forman, B. M., Blumberg, B., Ong, […]., Evans, R. M., Differential expression and activation of a family of murine peroxisome proliferator-activated receptors, Proc. Natl. Acad. Sci. USA, 91 (1994) 7355-7359.]. The HaCaT cells were seeded onto a 24-well plate at a density of 5×10^4 cells/well, cultured for 24 hours, and then transiently transfected with the plasmid genes. After 24 hours of culturing, followed by washing with phosphate-buffered saline (PBS), the ells were treated with dehydroabietic acid of Chemical Formula 1 purchased from Ramidus AB or WY14643, which is a PPARα ligand, as a positive control group at 10 μM. WY14643 is reported as a PPARα ligand which induces keratinocyte differentiation and strengthens skin barrier. A negative control group was treated with ethanol. After 24 hours of culturing, followed by washing with PBS, the cells were harvested and luciferase activity was measured. […] The result for each treatment group was represented relative to that of the negative control group."}, "[3]": {"test_system": "hyaluronic acid synthase 2 (HAS 2) gene", "assay": "Quantitative RT-PCR of HAS 2 gene expression in HaCaT cells", "conditions": "for Gene expression level (fold) HAS 2: 24 hours, relative mRNA level vs ethanol negative control as 1", "experimental": "as §1"}, "[4]": {"test_system": "PPARα gene", "assay": "Quantitative RT-PCR of PPARα gene expression in HaCaT cells", "conditions": "for Gene expression level (fold) PPARα: 24 hours, relative mRNA level vs ethanol negative control as 1", "experimental": "as §1"}, "[5]": {"test_system": "transglutaminase 1 (TGase 1) gene", "assay": "Quantitative RT-PCR of TGase 1 gene expression in HaCaT cells", "conditions": "for Gene expression level (fold) TGase1: 24 hours, relative mRNA level vs ethanol negative control as 1", "experimental": "as §1"}}, "data": [{"smiles": "CC(C)c1ccc2c(c1)CC[C@H]1[C@](C)(C(=O)O)CCC[C@]21C", "note": "[Dehydroabietic acid, dehydroabietic acid]", "values": [{"measurement": "Gene expression level (fold) Filaggrin", "setting": "[1]; 1 μM", "value": 2.31, "unit": "fold"}, {"measurement": "Gene expression level (fold) Filaggrin", "setting": "[1]; 10 μM", "value": 3.34, "unit": "fold"}, {"measurement": "Expression of the filaggrin gene, result in words", "setting": "[1]; treatment for 24 hours", "value": "significantly increased"}, {"measurement": "PPARα activation (%)", "setting": "[2]", "value": 291.5, "unit": "%"}, {"measurement": "PPARα activation (luciferase activity), result in words", "setting": "[2]; compared with WY14643 positive control", "value": "induced PPARα activation"}, {"measurement": "Gene expression level (fold) HAS 2", "setting": "[3]; 1 μM", "value": 12.4, "unit": "fold"}, {"measurement": "Gene expression level (fold) HAS 2", "setting": "[3]; 10 μM", "value": 40.15, "unit": "fold"}, {"measurement": "Expression of the hyaluronic acid synthase 2 (HAS 2) gene, result in words", "setting": "[3]; treatment for 24 hours", "value": "significantly increased"}, {"measurement": "Gene expression level (fold) PPARα", "setting": "[4]; 1 μM", "value": 2.65, "unit": "fold"}, {"measurement": "Gene expression level (fold) PPARα", "setting": "[4]; 10 μM", "value": 6.16, "unit": "fold"}, {"measurement": "Expression of the PPARα gene, result in words", "setting": "[4]; treatment for 24 hours", "value": "significantly increased"}, {"measurement": "Gene expression level (fold) TGase1", "setting": "[5]; 1 μM", "value": 2.58, "unit": "fold"}, {"measurement": "Gene expression level (fold) TGase1", "setting": "[5]; 10 μM", "value": 5.94, "unit": "fold"}, {"measurement": "Expression of the transglutaminase 1 (TGase 1) gene, result in words", "setting": "[5]; treatment for 24 hours", "value": "significantly increased"}]}, {"smiles": "Cc1cccc(Nc2cc(Cl)nc(SCC(=O)O)n2)c1C", "note": "[WY14643, reference compound]", "values": [{"measurement": "Gene expression level (fold) Filaggrin", "setting": "[1]; 1 μM", "value": 1.86, "unit": "fold"}, {"measurement": "Gene expression level (fold) Filaggrin", "setting": "[1]; 10 μM", "value": 3.12, "unit": "fold"}, {"measurement": "PPARα activation (%)", "setting": "[2]", "value": 286.9, "unit": "%"}, {"measurement": "Gene expression level (fold) HAS 2", "setting": "[3]; 1 μM", "value": 9.64, "unit": "fold"}, {"measurement": "Gene expression level (fold) HAS 2", "setting": "[3]; 10 μM", "value": 35.93, "unit": "fold"}, {"measurement": "Gene expression level (fold) PPARα", "setting": "[4]; 1 μM", "value": 2.54, "unit": "fold"}, {"measurement": "Gene expression level (fold) PPARα", "setting": "[4]; 10 μM", "value": 5.96, "unit": "fold"}, {"measurement": "Gene expression level (fold) TGase1", "setting": "[5]; 1 μM", "value": 2.13, "unit": "fold"}, {"measurement": "Gene expression level (fold) TGase1", "setting": "[5]; 10 μM", "value": 4.98, "unit": "fold"}]}]}
